Measured values taken from patent publication US7618984B2, “Sulfonamide compound” (Asahi Kasei Pharma Corporation, priority 2005, dated 2009).

Legend:
[1] = system: neutrophils; experiment: Neutrophil migration inhibitory action, Boyden Chamber, FMLP (Test Example 3); assay type: cell-based; details: 0.5 h, human neutrophils, FMLP 1 μM, 37° C., 30 minutes, read-out: IC50, compound concentration providing a migration inhibition ratio of 50%
Procedure: Neutrophils were isolated from 50 to 100 ml of peripheral blood collected from healthy human donors by the method described in Test Example 1 to obtain a cell suspension (8×10^6/ml). Subsequently, solutions of a test compound at various concentrations were introduced into wells of a 96-well plate in a volume of 125 μl per well, the cell suspension of an equivalent volume was added to it and the plate was preincubated at room temperature for 5 minutes. During the preincubation, FMLP (1 μM, Sigma) solution was added to the lower chamber to set Boyden Chamber, the preincubated cell suspension was added to the upper chamber in a volume of 200 μl per well, and the cells were allowed to migrate at 37° C. under 5% carbon dioxide for 30 minutes. The filter after the migration was collected, and the non-migrated cells adhered to the surface that faced the upper chamber were carefully wiped off. Then, the migrated cells on the back surface were stained with DifQuick dye solution (International Reagents), washed with water and dried, and then absorbance was measured at 595 nm. The inhibition ratio against migration (%) of a test compound was calculated by using the following equation: Migration inhibition ratio(%)=(1−Absorbance of the group with addition of test compound/Absorbance of the group without addition of test compound)×100
Further, the migration inhibitory ratio was calculated with changing the test compound concentration, and a compound concentration providing an inhibition ratio of 50% was obtained as IC50.

[2] = system: rabbit normal intraocular pressure; experiment: Intraocular pressure reducing action (Test Example 2); assay type: in vivo, Japanese white rabbit; details: Oryctolagus cuniculus, topical; 3 mM aqueous solution, 50 μl to the left eye; measured after 2, 4 and 6 hours; read-out: intraocular pressure reducing degree (max ΔIOP / intraocular pressure value immediately before administration × 100)
Procedure: A Japanese white rabbit having a body weight of about 2 kg was placed in a positioner and naturalized for one week before the experiment. An opthalmologic local anesthesant (Benoxil) was administered to both eyes, and then intraocular pressure was measured by using a tonometer (Classic 30, Solan). A 3 mM aqueous solution of a test compound was administered in a volume of 50 μl to the left eye, and the right eye was not treated (control eye). The intraocular pressure values were measured for the left and right eyes immediately before, and 2, 4 and 6 hours after the administration of the aqueous solution of the test compound, and the difference of the measured values for the left and right eyes was considered an intraocular pressure reduction value of the test medicament at each measurement time. The largest difference of the values for the left and right eyes among the measured values at the measurement times (after 2, 4 and 6 hours) was considered the maximum intraocular pressure reduction value (max ΔIOP) of each test medicament. The intraocular pressure reducing degree representing the intraocular pressure reducing action of each test medicament was calculated according to the following formula. Since rabbits show significant daily variation of intraocular pressure, daily variation is added when change of intraocular pressure is measured over time, and the intraocular pressure reducing action may be overestimated. Therefore, we used this calculation method of intraocular pressure reduction value in order to minimize the influence of the variation. Intraocular pressure reducing degree (%)=(max ΔIOP/Intraocular pressure value immediately before administration)×100

[3] = system: phosphorylation of myosin regulatory light chain; experiment: Inhibitory action on phosphorylation of myosin regulatory light chain (Test Example 1); assay type: cell-based; details: Neutrophil, 5 min; human peripheral blood neutrophils, 25° C. for 5 minutes; read-out: IC50, compound concentration providing a phosphorylation inhibition ratio of 50% (myosin regulatory light chain)
Procedure: A volume of 50 to 100 ml of peripheral blood collected from healthy volunteers was centrifuged by using Mono-Poly separator solution (Dainippon Pharmaceutical) to prepare a neutrophil containing fraction. The neutrophils were washed with PBS(−) and resuspended in Hanks' Balanced Salt Solution (HBSS+, Gibco) to prepare a cell suspension (8×10^6/ml). The cell suspension was diluted to 5×10^6/ml, introduced into Eppendorf tubes in a volume of 0.4 ml each, then 0.1 ml each of solutions of a test compound at various concentrations were added to the suspension and allowed to react at 25° C. for 5 minutes. After the reaction, 0.1 ml of trichloroacetic acid solution was added to each reaction mixture, the reaction mixture was gently shaken and centrifuged at 12,000 rpm (4° C., 5 minutes), and the supernatant was removed. Subsequently, 3 μl of 1 M Tris solution was added to the residue, the mixture was further mixed with 50 μl of extraction buffer (8 M urea, 0.02% 2-mercaptoethanol, 0.002% bromophenol blue) and left stand at room temperature for 1 hour. Then, the reaction mixture was loaded on a spin column (0.45 μm, Millipore) to remove the insoluble solids and a sample buffer for SDS polyacrylamide gel electrophoresis (25 mM, Tris-HCl pH 6.8, 2.5% 2-mercaptoethanol, 2% sodium dodecylsulfate, 5% sucrose, 0.002% bromophenol blue as final concentrations) was added, and 10 μl of each sample was subjected to electrophoresis.
The gel after the electrophoresis was blotted on a nitrocellulose membrane (BioRad), blocked with 5% skim milk, and reacted successively with antibodies pLC1 (Sakurada K. et al, Am. J. Physiol., 274, C1563-C1572 (1998)), which specifically recognize the phosphorylated myosin regulatory light chain, and donkey anti-mouse IgG (Chemicon) conjugated with horseradish peroxidase. The band of the phosphorylated myosin regulatory light chain was detected on a film by using ECL Plus Kit (Amersham Pharmacia Biotech). This band was subjected to quantification using a densitometer. By using this value, the inhibitory ratio (%) for phosphorylation of the myosin regulatory light chain was calculated by using the following equation. Phosphorylation inhibition ratio(%)=1−(Band intensity of phosphorylated myosin regulatory light chain with addition of the test compound/Band intensity of phosphorylated myosin regulatory light chain without addition of the test compound)×100
Further, the phosphorylation inhibition ratio was calculated with changing the concentrations of the test compound, and a compound concentration providing an inhibition ratio of 50% was obtained as IC50.

SMILES | IC50 [1] [µM] | inhibition in vivo at 3000 µM [2] [%] | IC50 [3] [µM]
N[C@H]1CCN(S(=O)(=O)c2cccc3cncc(Br)c23)C1 [Example 1-1, (S)-3-Amino-1-(4-bromo-5-isoquinolinesulfonyl)pyrrolidine] | 10 to 40 | ≥ 20 | < 10
N[C@@H]1CCN(S(=O)(=O)c2cccc3cncc(Br)c23)C1 [Example 1-2, (R)-3-Amino-1-(4-bromo-5-isoquinolinesulfonyl)pyrrolidine] | 10 to 40 | ≥ 20 | < 10
O=S(=O)(c1cccc2cncc(Br)c12)N1CC[C@H](NCc2ccco2)C1 [Example 4-1, (S)-3-(2-Furylmethyl)amino-1-(4-bromo-5-isoquinolinesulfonyl)pyrrolidine] | < 10 | ≥ 20 | < 10
N[C@H]1CCN(S(=O)(=O)c2cccc3c(O)ncc(Br)c23)C1 [Example 7-1, (S)-3-Amino-1-(1-hydroxy-4-bromo-5-isoquinolinesulfonyl)pyrrolidine] | < 10 | ≥ 20 | < 10
Cc1cncc2cccc(S(=O)(=O)N3CC[C@H](N)C3)c12 [Example 8-1, (S)-3-Amino-1-(4-methyl-5-isoquinolinesulfonyl)pyrrolidine] | < 10 | ≥ 20 | < 10
Cc1cncc2cccc(S(=O)(=O)N3CC[C@@H](N)C3)c12 [Example 8-2, (R)-3-Amino-1-(4-methyl-5-isoquinolinesulfonyl)pyrrolidine] | < 10 | ≥ 20 | < 10
C=Cc1cncc2cccc(S(=O)(=O)N3CC[C@H](N)C3)c12 [Example 9-1, (S)-3-Amino-1-(4-vinyl-5-isoquinolinesulfonyl)pyrrolidine] | 10 to 40 | ≥ 20 | < 10
C#Cc1cncc2cccc(S(=O)(=O)N3CC[C@H](N)C3)c12 [Example 10-1, (S)-3-Amino-1-(4-ethynyl-5-isoquinolinesulfonyl)pyrrolidine] | 10 to 40 | ≥ 20 | < 10
N[C@H]1CCN(S(=O)(=O)c2cccc3cncc(C4CC4)c23)C1 [Example 11-1, (S)-3-Amino-1-(4-cyclopropyl-5-isoquinolinesulfonyl)pyrrolidine] | 10 to 40 | 5 to 10 | < 10
Nc1cncc2cccc(S(=O)(=O)N3CC[C@H](N)C3)c12 [Example 12-1, (S)-3-Amino-1-(4-amino-5-isoquinolinesulfonyl)pyrrolidine] | – | 10 to 20 | 10 to 40
N#Cc1cncc2cccc(S(=O)(=O)N3CC[C@H](N)C3)c12 [Example 13-1, (S)-3-Amino-1-(4-cyano-5-isoquinolinesulfonyl)pyrrolidine] | – | 5 to 10 | –
COc1cncc2cccc(S(=O)(=O)N3CC[C@H](N)C3)c12 [Example 15-1, (S)-3-Amino-1-(4-methoxy-5-isoquinolinesulfonyl)pyrrolidine] | – | 5 to 10 | 10 to 40
N[C@H]1CCN(S(=O)(=O)c2cccc3cncc(F)c23)C1 [Example 18-1, (S)-3-Amino-1-(4-fluoro-5-isoquinolinesulfonyl)pyrrolidine] | – | ≥ 20 | 10 to 40
N[C@@H]1CCN(S(=O)(=O)c2cccc3cncc(Cl)c23)C1 [Example 19-2, (R)-3-Amino-1-(4-chloro-5-isoquinolinesulfonyl)pyrrolidine] | 10 to 40 | ≥ 20 | < 10
N[C@H]1CCCN(S(=O)(=O)c2cccc3cncc(Cl)c23)C1 [Example 21-1, (S)-3-Amino-1-(4-chloro-5-isoquinolinesulfonyl)piperidine] | – | ≥ 20 | 10 to 40
N[C@@H]1CCCN(S(=O)(=O)c2cccc3cncc(Cl)c23)C1 [Example 21-2, (R)-3-Amino-1-(4-chloro-5-isoquinolinesulfonyl)piperidine] | – | 10 to 20 | 10 to 40
Cc1cncc2cccc(S(=O)(=O)N3CCC[C@H](N)C3)c12 [Example 22-1, (S)-3-Amino-1-(4-methyl-5-isoquinolinesulfonyl)piperidine] | 10 to 40 | 10 to 20 | < 10
N[C@H]1CCN(S(=O)(=O)c2cccc3cncc(-c4cnoc4)c23)C1 [Example 24-1, (S)-3-Amino-1-[4-(4-isoxazolyl)-5-isoquinolinesulfonyl]pyrrolidine] | – | 5 to 10 | –
N[C@H]1CCN(S(=O)(=O)c2cccc3c(O)ncc(F)c23)C1 [Example 29-1, (S)-3-Amino-1-(1-hydroxy-4-fluoro-5-isoquinolinesulfonyl)pyrrolidine] | – | 10 to 20 | –
N[C@H]1CCN(S(=O)(=O)c2cccc3c(O)ncc(Cl)c23)C1 [Example 30-1, (S)-3-Amino-1-(1-hydroxy-4-chloro-5-isoquinolinesulfonyl)pyrrolidine] | – | ≥ 20 | –
CN[C@H]1CCN(S(=O)(=O)c2cccc3c(O)ncc(Br)c23)C1 [Example 35-1, (S)-1-(1-Hydroxy-4-bromo-5-isoquinolinesulfonyl)-3-(methylamino)pyrrolidine] | – | 5 to 10 | –
CN[C@@H]1CCN(S(=O)(=O)c2cccc3c(O)ncc(Cl)c23)C1 [Example 36-2, (R)-1-(1-Hydroxy-4-chloro-5-isoquinolinesulfonyl)-3-(methylamino)pyrrolidine] | – | 10 to 20 | –
O=S(=O)(c1cccc2c(O)ncc(Br)c12)N1CC[C@H](NCc2ccco2)C1 [Example 38-1, (S)-1-(1-Hydroxy-4-bromo-5-isoquinolinesulfonyl)-3-(2-furylmethylamino)pyrrolidine] | – | 5 to 10 | –
Nc1ncc(Cl)c2c(S(=O)(=O)N3CC[C@H](N)C3)cccc12 [Example 39-1, (S)-3-Amino-1-(1-amino-4-chloro-5-isoquinolinesulfonyl)pyrrolidine] | – | 10 to 20 | –
CN[C@H]1CCN(S(=O)(=O)c2cccc3c(N)ncc(Cl)c23)C1 [Example 40-1, (S)-1-(1-Amino-4-chloro-5-isoquinolinesulfonyl)-3-(methylamino)pyrrolidine] | – | 5 to 10 | –
CN[C@H]1CCN(S(=O)(=O)c2cccc3c(N)ncc(Br)c23)C1 [Example 42-1, (S)-1-(1-Amino-4-bromo-5-isoquinolinesulfonyl)-3-(methylamino)pyrrolidine] | – | 5 to 10 | –
